Assay results as given in paper PMC2034084, “Pharmacokinetics and binding of the bioreductive probe for hypoxia, NITP: effect of route of administration” (British Journal of Cancer, 1995).
Several values for one entry are separate records, joined by “and”; a condition that tells them apart may be missing. Equal entries are not always repeated.

Legend:
[1] = Solubility of NITP in water and in Molecusol HPB solution; format: physicochemical; conditions: Molecusol HPB solution vs water
Description: (§1) Britsh Journal of Cancer (1995) 72, 1462-1468 ft (32) 1995 Stockton Press All rights reserved 0007-0920/95 $12.00 Pharmacokinetics and binding of the bioreductive probe for hypoxia, NITP: effect of route of administration RJ Hodgkiss, MRL Stratford, MF Dennis and SA Hill Gray Laboratory Cancer Research Trust, P.O. Box 100, Mount Vernon Hospital, Northwood, Middlesex HA6 2JR, UK. Summary The novel compound 7-[4'-(2-nitroimidazol-l-yl)-butyl]-theophylline (NITP) can be used as an immunologically detectable probe for hypoxic cells. Because of the limited water solubility of NITP, it has been administered dissolved in peanut oil with 10% dimethylsulphoxide (DMSO). A new aqueous formulation has been devised, based on a 50% solution of a modified P-cyclodextrin (Molecusol HPB), which increases the water solubility of NITP 10-fold. […] Binding of the marker to hypoxic cells within tumours was also measured after the different routes of administration. […] The novel compound 7-[4'-(2-nitroimidazol-1-yl)-butyl]- theophylline (NITP), has been described as an immuno- logically detectable bioreductive probe for hypoxic cells (Hodgkiss et al., 1991), and appears to offer promise as a method of quantifying tumour hypoxia in vivo. […]

[2] = Plasma and tumour pharmacokinetics of NITP by HPLC after different routes and vehicles; format: in vivo, CBA mice; conditions: for AUC s.e.m. Tumour: CaNT tumour
Description: Britsh Journal of Cancer (1995) 72, 1462-1468 ft (32) 1995 Stockton Press All rights reserved 0007-0920/95 $12.00 Pharmacokinetics and binding of the bioreductive probe for hypoxia, NITP: effect of route of administration RJ Hodgkiss, MRL Stratford, MF Dennis and SA Hill Gray Laboratory Cancer Research Trust, P.O. Box 100, Mount Vernon Hospital, Northwood, Middlesex HA6 2JR, UK. Summary The novel compound 7-[4'-(2-nitroimidazol-l-yl)-butyl]-theophylline (NITP) can be used as an immunologically detectable probe for hypoxic cells. Because of the limited water solubility of NITP, it has been administered dissolved in peanut oil with 10% dimethylsulphoxide (DMSO). A new aqueous formulation has been devised, based on a 50% solution of a modified P-cyclodextrin (Molecusol HPB), which increases the water solubility of NITP 10-fold. The pharmacokinetics of NITP in plasma and tumours have been compared following oral and intraperitoneal (i.p.) administration of the NITP in Molecusol, i.p. administration of NITP dissolved in peanut oil + 10% DMSO and injection of a near-saturated aqueous solution of the drug intravenously via the tail vein or i.p. or directly into the tumours. Binding of the marker to hypoxic cells within tumours was also measured after the different routes of administration. The Molecusol vehicle was unexpectedly toxic when administered i.p., but there was no toxicity from NITP dissolved in Molecusol when administered orally. […] Binding of NITP within tumours has also been observed following direct injection of the drug, with minimal whole-body exposure to NITP. […] In particular, bioreductive drugs are specifically activated in hypoxic cells and can target those cells that are resistant to radiotherapy (for review see Stratford, 1992). Numerous methods have been proposed for measuring tumour hypoxia (for review see Hodgkiss and Wardman, 1992), in the hope that this would allow treatment to be optimised for individual patients on the basis of the oxygen status of their tumours. In particular, the hypoxia-specific binding of isotopically labelled 2-nitroimidazoles has been used to identify hypoxic cells in tumours, (e.g. Chapman et al., 1982; Franko and Chapman, 1982; Garrecht and Chap- man, 1983; Raleigh et al., 1985; Rasey et al., 1985; Urtasun et al., 1986). Immunological detection of 2-nitroimidazoles has been described (Raleigh et al., 1987; Hodgkiss et al., 1991; Lord et al., 1993) and avoids the administration of radioactive labels, which would be particularly desirable for clinical measurement of tumour hypoxia. The novel compound 7-[4'-(2-nitroimidazol-1-yl)-butyl]- theophylline (NITP), has been described as an immuno- logically detectable bioreductive probe for hypoxic cells (Hodgkiss et al., 1991), and appears to offer promise as a method of quantifying tumour hypoxia in vivo. However, the water solubility of NITP is only c. 2 x 10^-3 M at 20'C and its administration in vivo, dissolved in water or saline, would require an inconveniently large volume of drug solution to be given to achieve an adequate dose level of c. 0.45 lsmol g-'. To circumvent this problem, NITP has been administered in vivo as a solution in peanut oil + 10% DMSO (Hodgkiss et al., 1991). While this formulation has given satisfactory results in the tumour models used, it is clearly unsuitable for clinical administration, and an aqueous preparation of the drug would be preferable. ,-Cyclodextrin consists of seven glucose units joined into a ring, taking up the shape of a three-dimensional torus with a hydrophobic cavity. 'Guest' molecules of a suitable size can fit into the central cavity, and the inclusion complex thus formed can increase the aqueous solubility of lipophilic com- pounds (Szejtli, 1982). […] This paper describes the use of a modified 2-hydroxy-propyl-p-cyclodextrin (Mole- cusol HPB) as an agent for preparing aqueous solutions of NITP. […]

CaNT tumours = assay: Bound adducts of NITP in cells from tumours, fluorescent immunochemical staining and flow cytometry; format: in vivo, CBA mice; conditions: for proportion of total cells in the region of bound NITP metabolites: control region 1%
Description: Britsh Journal of Cancer (1995) 72, 1462-1468 ft (32) 1995 Stockton Press All rights reserved 0007-0920/95 $12.00 Pharmacokinetics and binding of the bioreductive probe for hypoxia, NITP: effect of route of administration RJ Hodgkiss, MRL Stratford, MF Dennis and SA Hill Gray Laboratory Cancer Research Trust, P.O. Box 100, Mount Vernon Hospital, Northwood, Middlesex HA6 2JR, UK. Summary The novel compound 7-[4'-(2-nitroimidazol-l-yl)-butyl]-theophylline (NITP) can be used as an immunologically detectable probe for hypoxic cells. Because of the limited water solubility of NITP, it has been administered dissolved in peanut oil with 10% dimethylsulphoxide (DMSO). A new aqueous formulation has been devised, based on a 50% solution of a modified P-cyclodextrin (Molecusol HPB), which increases the water solubility of NITP 10-fold. The pharmacokinetics of NITP in plasma and tumours have been compared following oral and intraperitoneal (i.p.) administration of the NITP in Molecusol, i.p. administration of NITP dissolved in peanut oil + 10% DMSO and injection of a near-saturated aqueous solution of the drug intravenously via the tail vein or i.p. or directly into the tumours. Binding of the marker to hypoxic cells within tumours was also measured after the different routes of administration. The Molecusol vehicle was unexpectedly toxic when administered i.p., but there was no toxicity from NITP dissolved in Molecusol when administered orally. […] Binding of NITP within tumours has also been observed following direct injection of the drug, with minimal whole-body exposure to NITP. […] In particular, bioreductive drugs are specifically activated in hypoxic cells and can target those cells that are resistant to radiotherapy (for review see Stratford, 1992). Numerous methods have been proposed for measuring tumour hypoxia (for review see Hodgkiss and Wardman, 1992), in the hope that this would allow treatment to be optimised for individual patients on the basis of the oxygen status of their tumours. In particular, the hypoxia-specific binding of isotopically labelled 2-nitroimidazoles has been used to identify hypoxic cells in tumours, (e.g. Chapman et al., 1982; Franko and Chapman, 1982; Garrecht and Chap- man, 1983; Raleigh et al., 1985; Rasey et al., 1985; Urtasun et al., 1986). […] The novel compound 7-[4'-(2-nitroimidazol-1-yl)-butyl]- theophylline (NITP), has been described as an immuno- logically detectable bioreductive probe for hypoxic cells (Hodgkiss et al., 1991), and appears to offer promise as a method of quantifying tumour hypoxia in vivo. […]

[3] = Toxicity and tolerability after oral or i.p. administration; format: in vivo, mice
Description: as §1

[4] = 0.45 umol g-1 i.p. in peanut oil + 10% DMSO
[5] = 0.45 and 0.09 umol g-1 oral in Molecusol
[6] = Molecusol HPB i.p. 0.09 umol g-1
[7] = Molecusol HPB i.p. 0.45 umol g-1
[8] = Molecusol HPB oral 0.09 umol g-1
[9] = Molecusol HPB oral 0.45 umol g-1, pooled data for three experiments
[10] = Molecusol HPB oral (footnote a), dose printed 0
[11] = Peanut oil/DMSO i.p. 0.45 umol g-1
[12] = plasma, Molecusol HPB i.p. 0.09 umol g-1
[13] = plasma, Molecusol HPB i.p. 0.45 umol g-1
[14] = plasma, Molecusol HPB oral 0.09 umol g-1
[15] = plasma, Molecusol HPB oral 0.45 umol g-1, pooled data for three experiments
[16] = plasma, Molecusol HPB oral (footnote a), dose printed 0
[17] = plasma, Peanut oil/DMSO i.p. 0.45 umol g-1
[18] = plasma, Saline i.p. 0.015 umol g-1
[19] = plasma, Saline i.t. 0.006 umol g-1
[20] = saline i.v. 0.015 umol g-1, non-linear regression, biphasic curve

With `Cn1c(=O)c2c(ncn2CCCCn2ccnc2[N+](=O)[O-])n(C)c1=O` [NITP, 7-[4'-(2-nitroimidazol-l-yl)-butyl]-theophylline] the “improvement in the solubility of NITP over that in water alone” value [1] was 10 fold and ~ 10 fold, the “peak plasma concentration relative to that predicted from a uniform distribution of the compound administered” value [2, 4] was “about 20%” and the “time plasma remains at plateau level” value [2, 4] was “about 50 min”. The “time to reach plasma plateau level” value [2, 4] was 10 to 15 min, the “peak plasma level relative to that expected from a uniform distribution of the drug” value [2, 5] was “about 20%” and the plasma clearance half-life [2, 5] was 22 min. For the same compound, the “AUC s.e.m. Tumour” value [2, 6] was 2.01 M min (x 103), the “AUC s.e.m. Tumour” value [2, 7] was 21.2 M min (x 103) and the “AUC s.e.m. Tumour” value [2, 8] was 0.310 M min (x 103). The “AUC s.e.m. Tumour” value [2, 9] was 4.09 M min (x 103), the “AUC s.e.m. Tumour” value [2, 10] was 4.62 M min (x 103) and the “AUC s.e.m. Tumour” value [2, 11] was 6.72 M min (x 103). For the same compound, the “AUC s.e.m. Tumour” value ([2]; Saline i.t. 0.006 umol g-1) was 2.64 M min (x 103), the “AUC s.e.m. Plasma” value [2, 6] was 2.54 M min (x 103) and the “AUC s.e.m. Plasma” value [2, 7] was 27.4 M min (x 103). The “AUC s.e.m. Plasma” value [2, 8] was 0.543 M min (x 103), the “AUC s.e.m. Plasma” value [2, 9] was 5.41 M min (x 103) and the “AUC s.e.m. Plasma” value [2, 10] was 5.73 M min (x 103). The “AUC s.e.m. Plasma” value [2, 11] was 9.26 M min (x 103), the “AUC s.e.m. Plasma” value ([2]; Saline i.p. 0.015 umol g-1) was 0.100 M min (x 103) and the “AUC s.e.m. Plasma” value ([2]; Saline i.t. 0.006 umol g-1) was 0.054 M min (x 103). For the same compound, the “AUC s.e.m. Plasma” value ([2]; Saline i.v. 0.005 umol g-1) was 0.041 M min (x 103), the “AUC s.e.m. Plasma” value ([2]; Saline i.v. 0.015 umol g-1) was 0.177 M min (x 103) and the Half life s.e.m. [2, 12] was 19.7 min. The “Peak concentration + s.e.m.” value [2, 12] was 58.2 µM, the Half life s.e.m. [2, 13] was 36.6 min and the “Peak concentration + s.e.m.” value [2, 13] was 401 µM. The Half life s.e.m. [2, 14] was 22.4 min, the “Peak concentration + s.e.m.” value [2, 14] was 16.2 µM and the Half life s.e.m. [2, 15] was 26.5 min. For the same compound, the “Peak concentration + s.e.m.” value [2, 15] was 104 µM, the Half life s.e.m. [2, 16] was 22.3 min and the “Peak concentration + s.e.m.” value [2, 16] was 127 µM. The Half life s.e.m. [2, 17] was 33.1 min, the “Peak concentration + s.e.m.” value [2, 17] was 96.3 µM and the Half life s.e.m. [2, 18] was 7.84 min. The “Peak concentration + s.e.m.” value [2, 18] was 6.78 µM, the Half life s.e.m. [2, 19] was 9.79 min and the “Peak concentration + s.e.m.” value [2, 19] was 3.68 µM. It also gave a Half life s.e.m. ([2]; plasma, Saline i.v. 0.005 umol g-1) of 8.86 min, a Peak concentration ([2]; plasma, Saline i.v. 0.005 umol g-1, 1 min, n = 1) of 4.06 µM and a Half life s.e.m. ([2]; plasma, Saline i.v. 0.015 umol g-1, linear fit to terminal elimination phase) of 9.64 min. It also gave a volume of distribution ([2]; saline i.v. 0.015 umol g-1, non-linear regression data) of 0.63 mL/g, a distribution phase half-life [2, 20] of 1.7 min and an elimination half-life [2, 20] of 9.2 min. For the same compound, the “factor by which plasma concentrations lie below the tumour concentration” value ([2]; single i.t. injection of 0.1 ml 2 x 10^-3 M NITP) was at least 20, the “binding of NITP in tumours” value (CaNT tumours; direct injection of NITP saline solution into tumours) was “substantial binding” and the “binding of NITP in tumours” value (CaNT tumours; i.v. injection of 2 x 10^-3 M solution in saline) was “little binding”. For the same compound, the “proportion of total cells in the region of bound NITP metabolites” value (CaNT tumours; tumour excised 30 min after oral 0.09 umol g-1 NITP in Molecusol) was 17%, the “proportion of total cells in the region of bound NITP metabolites” value (CaNT tumours; tumour excised 90 min after oral 0.45 umol g-1 NITP in Molecusol) was 19% and the toxicity ([3]; NITP in Molecusol i.p., dose reduced by a factor of 5 (0.09 umol g-1)) was “no toxicity”. For the same compound, the tolerability ([3]; oral, up to 0.9 umol g-1 NITP in Molecusol (20 umol g-1)) was “well tolerated with no obvious toxicity”.
